# From patent US12324827B2, “Combination therapy for the treatment of migraines” (The University of Chicago, priority 2019, dated 2025)
# Entries after “also recorded” stand apart in the source; their conditions may differ.
# System: mechanical hyperalgesia
# Assay: Acid saline-induced fibromyalgia model, hind paw withdrawal threshold by electronic von Frey
# Assay type: in vivo, female Wistar rats
# Settings: nasal IGF-1 150 μg/dose on PD-2, PD-5, PD-8; experiments FM-7 and FM-8, n=3/group
# Source text: However, due to its simplicity and reproducibility, a widely-used, non-inflammatory rodent model which mimics chronic, widespread muscle pain-like behavior was utilized. This fibromyalgia model consists of two unilateral injections of acid saline into the gastrocnemius muscle which produce bilateral, long-lasting mechanical hyperalgesia for up to 4 weeks without motor deficits or tissue damage observed histologically (Sluka et al., 2001), Hind paw withdrawal thresholds obtained using an electronic von Frey device were used as a measure of “inferred pain”.
# Experimental Procedures here are described utilizing intranasal IGF-1 for treatment of pain related to the acid saline-induced fibromyalgia model. […]
# Testing consists of placing rats in an acrylic cage module [23 cm×24 cm×14.6 cm (W×L×H)] which rests upon an elevated wire mesh grid floor (FIG. 21). […] The force at which this response occurs is recorded automatically by the electronic device and is designated as the paw withdrawal threshold (FIG. 22). […]
# Two investigators were used for all experiments. […] The second investigator recorded paw withdrawal threshold (PWT) force levels, procedures modeled after the experimental strategy reported by Martinov et al., 2013. […]
# Specifically, baseline (BA) measurements of paw withdrawal threshold (PWT) were determined for six animals/experiment prior to experimental treatment. […]
substance,measurement,value
"IGF-1: human recombinant IGF-1 (#191-G1; R&D Systems), 150 μg in 50 μL sodium succinate buffer, delivered nose-to-brain",hind paw withdrawal threshold / pain-related behavior,significant and continued reduction in pain-related behavior; also recorded: protection against acid-induced hind paw hyperalgesia
